Measured values: patent US20070027184A1, “Multicyclic sulfonamide compounds as inhibitors of histone deacetylase for the treatment of disease” (KALYPSYS, INC., priority 2005, published 2007)
Like-named read-outs stand apart in the source and are kept apart here.

Columns and labels:
[1] = tested on: HCT-116 colorectal cancer cells; test: in vivo; conditions: for T/C value for efficacy at MTD: daily oral gavage
Experimental: (§1) 5×10^6 HCT-116 colorectal cancer cells were injected subcutaneously into the right flank of 4-6 week old female nude (nu/nu) mice. […] Tumor burden was determined twice weekly by measurement with calipers in 2-dimensions (length (l)×width (w)) and the volume of spheroid calculated using the formula (l×(w)^2/2). Bodyweight was measured and recorded on same day as tumor volume measurement.

[2] = in vivo; conditions: female, mouse, in vivo
Experimental: as §1

[3] = tested on: HDAC; test: In vitro HDAC-inhibition assay (Fluor de Lys); format: biochemical
Experimental: This assay measures a compound's ability to inhibit acetyl-lysine deacetylation in vitro and was used as both a primary screening method as well as for IC50 determinations of confirmed inhibitors. The assay is performed in vitro using an HDAC enzyme source (e.g. partially purified nuclear extract or immunopurified HDAC complexes) and a proprietary fluorescent substrate/developer system (HDAC Quantizyme Fluor de Lys Fluorescent Activity Assay, BIOMOL). The assay is run in 1,536-well Greiner white-bottom plates using the following volumes and order of addition:
Step 1: Enzyme (2.5 ul) source added to plate (from refrigerated container)
Step 2: Compounds (50 nl) added with pin transfer device
Step 3: Fluor de Lys (2.5 ul) substrate added, incubate at RT, 30 minutes
Step 4: Developer (5 ul) solution is added (containing TSA), to stop reaction
Step 5: Plate Reader—data collection
The deacetylated fluorophore is excited with 360 nm light and the emitted light (460 nm) is detected on an automated fluorometric plate reader (Aquest, Molecular Devices).

[4] = tested on: HDAC in cells; test: Cellular IC50 (cellular histone hyperacetylation / differential cytotoxicity assays); format: cell-based
Experimental: These two secondary assays evaluates a compound's ability to inhibit HDAC in cells by measuring cellular histone acetylation levels. The cytoblot facilitates quantitative EC50 information for cellular HDAC inhibition. Transformed cell lines (e.g. HeLa, A549, MCF-7) are cultured under standard media and culture conditions prior to plating.
Cells (approx. 2,500/well) are allowed to adhere 10-24 hours to wells of a 384-well Greiner PS assay plate in media containing 1-5% serum. Cells are treated with appropriate compound and specific concentrations for 0 to 24 hours. Cells are washed once with PBS (60 ul) and then fixed (95% ethanol, 5% acetic acid or 2% PFA) for 1 minute at RT (30 ul). Cells are blocked with 1% BSA for 1 hour and washed and stained with antibody (e.g. anti-Acetylated Histone H3, Upstate Biotechnology), followed by washing and incubation with an appropriate secondary antibody conjugated to HRP or fluorophore. For luminescence assays, signal is generated using Luminol substrate (Santa Cruz Biotechnology) and detected using an Aquest plate reader (Molecular Devices).
HDAC inhibitors display differential cytotoxicity toward certain transformed cell lines. Cells are cultured according to standard ATCC recommended conditions that are appropriate to each cell type. Compounds were tested for their ability to kill different cell types (normal and transformed) using the ATPlite luminescence ATP detection assay system (Perkin Elmer). Assays are run in either 384-well or 1536-well Greiner PS plates. Cells (30 ul or 5 ul, respectively) are dispensed using either multichannel pipette for 384-well plates, or proprietary Kalypsys bulk liquid dispenser for 1536-well plates. Compounds added using proprietary pin-transfer device (500 nL or 5 nL) and incubated 5 to 30 hours prior to analysis. Luminescence is measured using Aquest plate reader (Molecular Devices).

[5] = 50 mg/kg QD orally, data from another study

Row | SMILES | IC50 [3] [nM] | IC50 [4] [nM] | further results
1 | CC(=O)SCC(=O)c1ccc(NS(=O)(=O)c2ccc3c(c2)OCCO3)nc1 [Example 1] | ≤ 1000 | ≤ 1000 | Survival [1, 5]: 10/10; T/C [1, 5]: 53%; Tolerability (weight loss, mortality) ([1]; 50 mg/kg, determined previously): well tolerated; Survival ([1]; 100 mg/kg QD orally): 8/10; T/C ([1]; 100 mg/kg QD orally): 42%; Survival ([1]; 125 mg/kg QD orally): 7/10; T/C ([1]; 125 mg/kg QD orally): 29%; Survival ([1]; 175 mg/kg QD orally): 0/10; T/C ([1]; 175 mg/kg QD orally): 11%; Survival ([1]; 250 mg/kg QD orally): 2/10; T/C ([1]; 250 mg/kg QD orally): 15%; T/C value for efficacy at MTD [1]: 53%; MTD ([2]; daily oral gavage, highest dose without lethality or ≧20% bodyweight loss, read-out: Maximum tolerated dose (MTD)): < 100 mg/kg
2 | CC(=O)SCC(=O)c1ccc(NS(=O)(=O)c2ccc3c(c2)ncn3C)nc1 [Example 2] | ≤ 1000 | ≤ 1000 | –
3 | CC(=O)SCC(=O)c1ccc(NS(=O)(=O)c2ccc3c(c2)OCCO3)cn1 [Example 3, Thioacetic acid S-{2-[5-(2,3-dihydro-benzo[1,4]dioxine-6-sulfonylamino)-pyridin-2-yl]-2-oxo-ethyl}ester] | ≤ 1000 | ≤ 1000 | –
4 | CC(=O)SCC(=O)c1ccc(NS(=O)(=O)c2ccc3c(c2)CCO3)nc1 [Example 4, Thioacetic acid S-{2-[6-(2,3-dihydro-benzofuran-5-sulfonylamino)-pyridin-3-yl]-2-oxo-ethyl}ester] | – | ≤ 1000 | –
5 | CC(=O)SCC(=O)c1ccc(NS(=O)(=O)c2ccc3ncccc3c2)cc1 [Example 5, Thioacetic acid S-{2-oxo-2-[4-(quinoline-6-sulfonylamino)-phenyl]-ethyl}ester] | ≤ 1000 | ≤ 1000 | –
6 | CC(=O)SCC(=O)c1ccc(NS(=O)(=O)c2ccc3c(c2)OCO3)nc1 [Example 6, Thioacetic acid S-{2-[6-(benzo[1,3]dioxole-5-sulfonylamino)-pyridin-3-yl]-2-oxo-ethyl}ester] | ≤ 1000 | ≤ 1000 | –
7 | CC(=O)SCC(=O)c1cnc(NS(=O)(=O)c2ccc3c(c2)OCCO3)nc1 [Example 7, Thioacetic acid S-{2-[2-(2,3-dihydro-benzo[1,4]dioxine-6-sulfonylamino)-pyrimidin-5-yl]-2-oxo-ethyl}ester] | ≤ 1000 | > 1000 | –
8 | O=C(CSSCC(=O)c1ccc(NS(=O)(=O)c2ccc3c(c2)OCCO3)nc1)c1ccc(NS(=O)(=O)c2ccc3c(c2)OCCO3)nc1 [Example 8, 2,3-Dihydro-benzo[1,4]dioxine-6-sulfonic acid [5-(2-mercapto-acetyl)-pyridin-2-yl]-amide disulfide] | ≤ 1000 | ≤ 1000 | –
9 | O=C(O)CCSCC(=O)c1ccc(NS(=O)(=O)c2ccc3c(c2)OCCO3)nc1 [Example 9, 3-{2-[6-(2,3-Dihydro-benzo[1,4]dioxine-6-sulfonylamino)-pyridin-3-yl]-2-oxo-ethylsulfanyl}propionic acid] | > 1000 | – | –
10 | CN(C)CCSSCC(=O)c1ccc(NS(=O)(=O)c2ccc3c(c2)OCCO3)nc1 [Example 10, 2,3-Dihydro-benzo[1,4]dioxine-6-sulfonic acid {5-[2-(2-dimethylamino-ethyldisulfanyl)-acetyl]-pyridin-2-yl}-amide] | ≤ 1000 | ≤ 1000 | –
11 | O=C(CS)c1ccc(NS(=O)(=O)c2ccc3c(c2)OCCO3)nc1 [Example 11, 2,3-Dihydro-benzo[1,4]dioxine-6-sulfonic acid[5-(2-mercapto-acetyl)-pyridin-2-yl]-amide] | ≤ 1000 | ≤ 1000 | –
12 | O=C(CSC(=O)c1ccccc1)c1ccc(NS(=O)(=O)c2ccc3c(c2)OCCO3)nc1 [Example 12, Thiobenzoic acid S-{2-[6-(2,3-dihydro-benzo[1,4]dioxine-6-sulfonylamino)-pyridin-3-yl]-2-oxo-ethyl}ester] | ≤ 1000 | ≤ 1000 | –
13 | NC(CSSCC(=O)c1ccc(NS(=O)(=O)c2ccc3c(c2)OCCO3)nc1)C(=O)O (stereo not shown) [Example 13, 2-Amino-3-{2-[6-(2,3-dihydro-benzo[1,4]dioxine-6-sulfonylamino)-pyridin-3-yl]-2-oxo-ethyldisulfanyl}-propionic acid] | ≤ 1000 | ≤ 1000 | –
14 | CC(=O)SCC(=O)c1ccc(NS(=O)(=O)c2ccc3c(c2)OCCN3C)nc1 [Example 14, Thioacetic acid S-{2-[6-(4-methyl-3,4-dihydro-2H-benzo[1,4]oxazine-7-sulfonylamino)-pyridin-3-yl]-2-oxo-ethyl}ester] | – | ≤ 1000 | –
15 | CC(=O)SCC(=O)c1ccc(NS(=O)(=O)c2ccc3c(c2)OCCCO3)nc1 [Example 15, Thioacetic acid S-{2-[6-(3,4-dihydro-2H-benzo[b][1,4]dioxepine-7-sulfonylamino)-pyridin-3-yl]-2-oxo-ethyl}ester] | – | ≤ 1000 | –
16 | CC(=O)SCC(=O)c1ccc(NS(=O)(=O)c2ccc3c(c2)OCC(C)(C)CO3)nc1 [Example 16, Thioacetic acid S-{2-[6-(3,3-dimethyl-3,4-dihydro-2H-benzo[b][1,4]dioxepine-7-sulfonylamino)-pyridin-3-yl]-2-oxo-ethyl}ester] | – | ≤ 1000 | –
17 | CC(=O)SCC(=O)c1csc(NS(=O)(=O)c2ccc3c(c2)OCCO3)n1 [Example 17, Thioacetic acid S-{2-[2-(2,3-dihydro-benzo[1,4]dioxine-6-sulfonylamino)-thiazol-4-yl]-2-oxo-ethyl}ester] | – | > 1000 | –
18 | CC(=O)SCC(=O)c1cnc(NS(=O)(=O)c2ccc3c(c2)OCCO3)s1 [Example 18, Thioacetic acid S-{2-[2-(2,3-dihydro-benzo[1,4]dioxine-6-sulfonylamino)-thiazol-5-yl]-2-oxo-ethyl}ester] | – | ≤ 1000 | –
19 | CC(=O)SCC(=O)c1ccc(NS(=O)(=O)c2ccc3nc(N4CCN(C)CC4)ccc3c2)nc1 [Example 19, Thioacetic acid S-(2-{6-[2-(4-methyl-piperazin-1-yl)-quinoline-6-sulfonylamino]-pyridin-3-yl}-2-oxo-ethyl)ester] | – | ≤ 1000 | –
20 | CC(=O)SCC(=O)c1ccc(NS(=O)(=O)c2ccc3nc(N4CCCN(C)CC4)ccc3c2)nc1 [Example 20, Thioacetic acid S-(2-{6-[2-(4-methyl-[1,4]diazepan-1-yl)-quinoline-6-sulfonylamino]-pyridin-3-yl}-2-oxo-ethyl)ester] | – | ≤ 1000 | –
21 | CC(=O)SCC(=O)c1ccc(NS(=O)(=O)c2ccc3nc(NCCN(C)C)ccc3c2)nc1 [Example 21, Thioacetic acid S-(2-{6-[2-(2-dimethylamino-ethylamino)-quinoline-6-sulfonylamino]-pyridin-3-yl}-2-oxo-ethyl)ester] | – | ≤ 1000 | –
22 | CC(=O)SCC(=O)c1ccc(NS(=O)(=O)c2ccc3nc(NCCCN(C)C)ccc3c2)nc1 [Example 22, Thioacetic acid S-(2-{6-[2-(3-dimethylamino-propylamino)-quinoline-6-sulfonylamino]-pyridin-3-yl}-2-oxo-ethyl)ester] | – | ≤ 1000 | –
23 | CC(=O)SCC(=O)c1ccc(NS(=O)(=O)c2ccc3nc(N(C)CCCN(C)C)ccc3c2)nc1 [Example 23, Thioacetic acid S-[2-(6-{2-[(3-dimethylamino-propyl)-methyl-amino]-quinoline-6-sulfonylamino}-pyridin-3-yl)-2-oxo-ethyl]ester] | – | ≤ 1000 | –
24 | CC(=O)SCC(=O)c1ccc(NS(=O)(=O)c2ccc3nc(N(C)C)ccc3c2)nc1 [Example 24, Thioacetic acid S-{2-[6-(2-dimethylamino-quinoline-6-sulfonylamino)-pyridin-3-yl]-2-oxo-ethyl}ester] | – | ≤ 1000 | –
25 | O=C(CCCCCCC(=O)Nc1ccccc1)NO [SAHA, reference compound] | – | – | T/C [1, 5]: 59%; T/C ([1]; 100 mg/kg QD orally): 65%; T/C ([1]; 125 mg/kg QD orally): 73%; T/C ([1]; 175 mg/kg QD orally): 41%; T/C ([1]; 250 mg/kg QD orally): 52%; T/C ([1]; 350 mg/kg QD orally): 24%; Lethality ([1]; 350 mg/kg daily oral gavage): lethality was observed; T/C ([1]; 475 mg/kg QD orally): 21%; T/C value for efficacy at MTD [1]: 52%; MTD ([2]; nude (nu/nu), po): 250 mg/kg
